Results reported in patent publication US9108944B2, “Androgen receptor modulators and uses thereof” (ARAGON PHARMACEUTICALS, INC., priority 2010, dated 2015).
pIC50: −log10 of the molar value.

Key:
AR-VP16 [1] = target: T1, AR-VP16 (Homo sapiens, UniProt P10275); test: AR-VP16 DNA Binding Assay, agonist mode (HepG2 cells); assay type: cell-based; conditions: Emax >20x DMSO control = agonist
T1 sequence (P10275 560-920 limits assumed): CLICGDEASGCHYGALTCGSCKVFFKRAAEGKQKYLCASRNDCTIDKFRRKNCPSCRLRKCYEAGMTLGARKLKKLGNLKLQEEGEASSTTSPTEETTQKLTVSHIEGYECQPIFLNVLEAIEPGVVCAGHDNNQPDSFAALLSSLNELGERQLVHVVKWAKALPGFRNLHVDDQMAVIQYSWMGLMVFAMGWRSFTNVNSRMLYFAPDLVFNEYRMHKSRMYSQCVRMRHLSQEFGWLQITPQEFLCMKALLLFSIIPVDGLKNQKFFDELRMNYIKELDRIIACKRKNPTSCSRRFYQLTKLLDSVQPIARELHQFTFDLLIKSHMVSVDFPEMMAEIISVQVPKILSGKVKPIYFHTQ

AR-VP16 [2] = target: T1, AR-VP16; test: AR-VP16 DNA Binding Assay, antagonist mode (HepG2 cells, 0.1 nM R1881); assay type: cell-based
How it was run: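 HepG2 cells transiently transfected with AR-VP16 (Lipofectin), incubated overnight, then treated with compound in RPMI with charcoal-stripped serum. Antagonist mode adds R1881 at 0.1 nM final. Cells lysed after 48 h incubation for read-out.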

Row | Compound | ARVP16 DNA Binding Assay (Agonist mode): Agonist? (AR-VP16 [1]) | pIC50 (AR-VP16 [2])
1 | COc1ccc(N2C(=S)N(c3cnc(C#N)c(C)c3)C(=O)C23CCC3)cc1 [Compound 205, 5-(5-(4-Methoxyphenyl)-8-oxo-6-thioxo-5,7-diazaspiro[3.4]octan-7-yl)-3-methylpicolinonitrile] | No (Agonist defined as a compound whose Emax in the ARVP16 DNA Binding Assay (Agonist mode) is >20x DMSO control) | > 6.00
2 | N#Cc1ncc(N2C(=O)C3(CCC3)N(c3ccc(C(=O)O)c(F)c3)C2=S)cc1C(F)(F)F [Compound 224, 4-(7-(6-Cyano-5-(trifluoromethyl)pyridin-3-yl)-8-oxo-6-thioxo-5,7-diazaspiro[3.4]octan-5-yl)-2-fluorobenzoic acid] | No (Agonist defined as a compound whose Emax in the ARVP16 DNA Binding Assay (Agonist mode) is >20x DMSO control) | < 6.00
3 | Cc1ccc(-c2ccc(N3C(=S)N(c4cnc(C#N)c(C)c4)C(=O)C34CCC4)cc2)cn1 [Compound 96, 3-Methyl-5-(5-(4-(6-methylpyridin-3-yl)phenyl)-8-oxo-6-thioxo-5,7-diazaspiro[3.4]octan-7-yl)picolinonitrile] | No (Agonist defined as a compound whose Emax in the ARVP16 DNA Binding Assay (Agonist mode) is >20x DMSO control) | > 6.00
4 | N#Cc1ncc(N2C(=O)C3(CCC3)N(c3ccc(C(=O)NCCc4ccncc4)c(F)c3)C2=S)cc1C(F)(F)F [Compound 238, 4-(7-(6-Cyano-5-(trifluoromethyl)pyridin-3-yl)-8-oxo-6-thioxo-5,7-diazaspiro[3.4]octan-5-yl)-2-fluoro-N-(2-(pyridin-4-yl)ethyl)benzamide] | No (Agonist defined as a compound whose Emax in the ARVP16 DNA Binding Assay (Agonist mode) is >20x DMSO control) | < 6.00
5 | N#Cc1ncc(N2C(=O)C3(CCC3)N(c3ccc(F)c(C(=O)NCCN4CCCC4)c3)C2=S)cc1C(F)(F)F [Compound 251, 5-(7-(6-Cyano-5-(trifluoromethyl)pyridin-3-yl)-8-oxo-6-thioxo-5,7-diazaspiro[3.4]octan-5-yl)-2-fluoro-N-(2-(pyrrolidin-1-yl)ethyl)benzamide] | No (Agonist defined as a compound whose Emax in the ARVP16 DNA Binding Assay (Agonist mode) is >20x DMSO control) | < 6.00
6 | CCCCNC(=O)c1ccc(N2C(=S)N(c3cnc(C#N)c(C(F)(F)F)c3)C(=O)C23CCC3)cc1F [Compound 277, N-Butyl-4-(7-(6-cyano-5-(trifluoromethyl)pyridin-3-yl)-8-oxo-6-thioxo-5,7-diazaspiro[3.4]octan-5-yl)-2-fluorobenzamide] | No (Agonist defined as a compound whose Emax in the ARVP16 DNA Binding Assay (Agonist mode) is >20x DMSO control) | > 6.00
7 | COCCCNC(=O)c1ccc(N2C(=S)N(c3cnc(C#N)c(C(F)(F)F)c3)C(=O)C23CCC3)cc1F [Compound 249, 4-(7-(6-Cyano-5-(trifluoromethyl)pyridin-3-yl)-8-oxo-6-thioxo-5,7-diazaspiro[3.4]octan-5-yl)-2-fluoro-N-(3-methoxypropyl)benzamide] | No (Agonist defined as a compound whose Emax in the ARVP16 DNA Binding Assay (Agonist mode) is >20x DMSO control) | > 6.00
8 | CNC(=O)c1ccc(N2C(=S)N(c3cnc(C#N)c(C)c3)C(=O)C23CCC3)c(F)c1 [Compound 104, 4-(7-(6-Cyano-5-methylpyridin-3-yl)-8-oxo-6-thioxo-5,7-diazaspiro[3.4]octan-5-yl)-3-fluoro-N-methylbenzamide] | No (Agonist defined as a compound whose Emax in the ARVP16 DNA Binding Assay (Agonist mode) is >20x DMSO control) | > 6.00
9 | N#Cc1ncc(N2C(=O)C3(CCC3)N(c3ccc(OCCCc4ccccc4)c(F)c3)C2=S)cc1C(F)(F)F [Compound 138, 5-(5-(3-Fluoro-4-(3-phenylpropoxy)phenyl)-8-oxo-6-thioxo-5,7-diazaspiro[3.4]octan-7-yl)-3-(trifluoromethyl)picolinonitrile] | No (Agonist defined as a compound whose Emax in the ARVP16 DNA Binding Assay (Agonist mode) is >20x DMSO control) | < 6.00
10 | N#Cc1ncc(N2C(=O)C3(CCC3)N(c3ccc(OCCc4ccc5ccccc5c4)c(F)c3)C2=S)cc1C(F)(F)F [Compound 141, 5-(5-(3-Fluoro-4-(2-(naphthalen-2-yl)ethoxy)phenyl)-8-oxo-6-thioxo-5,7-diazaspiro[3.4]octan-7-yl)-3-(trifluoromethyl)picolinonitrile] | Yes (Agonist defined as a compound whose Emax in the ARVP16 DNA Binding Assay (Agonist mode) is >20x DMSO control) | < 6.00
11 | N#Cc1ncc(N2C(=O)C3(CCC3)N(c3ccc(C4CCOCC4)cc3)C2=S)cc1C(F)(F)F [Compound 115, 5-(8-Oxo-5-(4-(tetrahydro-2H-pyran-4-yl)phenyl)-6-thioxo-5,7-diazaspiro[3.4]octan-7-yl)-3-(trifluoromethyl)picolinonitrile] | No (Agonist defined as a compound whose Emax in the ARVP16 DNA Binding Assay (Agonist mode) is >20x DMSO control) | > 6.00
12 | N#Cc1ncc(N2C(=O)C3(CCC3)N(c3ccc(OCCN4CCSCC4)c(F)c3)C2=S)cc1C(F)(F)F [Compound 175, 5-(5-(3-Fluoro-4-(2-thiomorpholinoethoxy)phenyl)-8-oxo-6-thioxo-5,7-diazaspiro[3.4]octan-7-yl)-3-(trifluoromethyl)picolinonitrile] | No (Agonist defined as a compound whose Emax in the ARVP16 DNA Binding Assay (Agonist mode) is >20x DMSO control) | > 6.00
13 | Cc1cc(N2C(=O)C3(CCC3)N(c3ccc(-c4cncc(F)c4)cc3)C2=S)cnc1C#N [Compound 105, 5-(5-(4-(5-Fluoropyridin-3-yl)phenyl)-8-oxo-6-thioxo-5,7-diazaspiro[3.4]octan-7-yl)-3-methylpicolinonitrile] | No (Agonist defined as a compound whose Emax in the ARVP16 DNA Binding Assay (Agonist mode) is >20x DMSO control) | > 6.00
14 | Cc1ccc(N2C(=S)N(c3ccc4nccn4c3)C(=O)C23CCC3)cc1 [Compound 62, 7-(Imidazo[1,2-a]pyridin-6-yl)-6-thioxo-5-(p-tolyl)-5,7-diazaspiro[3.4]octan-8-one] | No (Agonist defined as a compound whose Emax in the ARVP16 DNA Binding Assay (Agonist mode) is >20x DMSO control) | < 6.00
15 | Cc1cc(N2C(=O)C3(CCC3)N(c3ccc(C(N)=O)c(F)c3)C2=S)cnc1C#N [Compound 232, 4-(7-(6-Cyano-5-methylpyridin-3-yl)-8-oxo-6-thioxo-5,7-diazaspiro[3.4]octan-5-yl)-2-fluorobenzamide] | No (Agonist defined as a compound whose Emax in the ARVP16 DNA Binding Assay (Agonist mode) is >20x DMSO control) | > 6.00
16 | Cc1cc(N2C(=O)C3(CCC3)N(c3ccc(-c4cccnc4C)cc3)C2=S)cnc1C#N [Compound 99, 3-Methyl-5-(5-(4-(2-methylpyridin-3-yl)phenyl)-8-oxo-6-thioxo-5,7-diazaspiro[3.4]octan-7-yl)picolinonitrile] | Yes (Agonist defined as a compound whose Emax in the ARVP16 DNA Binding Assay (Agonist mode) is >20x DMSO control) | > 6.00
17 | CCOC(=O)CCNC(=O)c1ccc(N2C(=S)N(c3cnc(C#N)c(C(F)(F)F)c3)C(=O)C23CCC3)cc1F [Compound 246, Ethyl 3-(4-(7-(6-cyano-5-(trifluoromethyl)pyridin-3-yl)-8-oxo-6-thioxo-5,7-diazaspiro[3.4]octan-5-yl)-2-fluorobenzamido)propanoate] | No (Agonist defined as a compound whose Emax in the ARVP16 DNA Binding Assay (Agonist mode) is >20x DMSO control) | < 6.00
18 | N#Cc1ncc(N2C(=O)C3(CCC3)N(c3ccc4cnccc4c3)C2=S)cc1C(F)(F)F [Compound 51, 5-(5-(Isoquinolin-6-yl)-8-oxo-6-thioxo-5,7-diazaspiro[3.4]octan-7-yl)-3-(trifluoromethyl)picolinonitrile] | No (Agonist defined as a compound whose Emax in the ARVP16 DNA Binding Assay (Agonist mode) is >20x DMSO control) | > 6.00
19 | COCCOc1ccc(N2C(=S)N(c3cnc(C#N)c(C(F)(F)F)c3)C(=O)C23CCC3)cc1F [Compound 131, 5-(5-(3-Fluoro-4-(2-methoxyethoxy)phenyl)-8-oxo-6-thioxo-5,7-diazaspiro[3.4]octan-7-yl)-3-(trifluoromethyl)picolinonitrile] | No (Agonist defined as a compound whose Emax in the ARVP16 DNA Binding Assay (Agonist mode) is >20x DMSO control) | > 6.00
20 | COC(=O)c1ccc(N2C(=S)N(c3cnc(C#N)c(C)c3)C(=O)C23CCC3)c(F)c1 [Compound 71, Methyl 4-(7-(6-cyano-5-methylpyridin-3-yl)-8-oxo-6-thioxo-5,7-diazaspiro[3.4]octan-5-yl)-3-fluorobenzoate] | No (Agonist defined as a compound whose Emax in the ARVP16 DNA Binding Assay (Agonist mode) is >20x DMSO control) | < 6.00
